# How the values were obtained:
# [1] = target: B-cell lymphoma 6 protein (Homo sapiens, UniProt P41182); experiment: Binding affinity to fluorescently labeled recombinant BCL6 BTB domain (unknown origin) expressed in Escherichia coli BL21 (DE3) incubated for 10 mins by microscale thermophoresis method
# [2] = Solubility in aqueous solution containing 1% DMSO; type: physicochemical
# SU-DHL-6 = experiment: Growth inhibition of human SUDHL6 cells incubated for 48 hrs by cell-titer-blue dye based assay; type: functional; settings: SU-DHL-6, 48 h
# SUD4 = experiment: Growth inhibition of human SUDHL4 cells incubated for 48 hrs by cell-titer-blue dye based assay; type: functional; settings: SU-DHL-4, 48 h
# [3] = Growth inhibition of human OCI-Ly1-B50 cells incubated for 48 hrs by cell-titer-blue dye based assay; type: functional
# KARPAS-422 = experiment: Growth inhibition of human KARPAS422 cells incubated for 48 hrs by cell-titer-blue dye based assay; type: functional; settings: KARPAS-422, 48 h
# OCI-Ly7 = experiment: Growth inhibition of human OCI-LY7 cells incubated for 48 hrs by cell-titer-blue dye based assay; type: functional; settings: OCI-Ly7, 48 h
# Toledo = experiment: Growth inhibition of human Toledo cells incubated for 48 hrs by cell-titer-blue dye based assay; type: functional
# OCI-Ly1 = experiment: Growth inhibition of human OCI-LY1 cells incubated for 48 hrs by cell-titer-blue dye based assay; type: functional; settings: OCI-Ly1, 48 h
Kd [1] [µM],Compound,solubility [2] [µM],GI50 (SU-DHL-6) [µM],GI50 (SUD4) [µM],GI50 [3] [µM],GI50 (KARPAS-422) [µM],GI50 (OCI-Ly7) [µM],GI50 (Toledo) [µM],GI50 (OCI-Ly1) [µM]
30,CC[C@H](C)[C@H](NC(=O)[C@H](CCC(=O)O)NC(=O)[C@H](Cc1cnc[nH]1)NC(=O)[C@H](NC(=O)[C@H](CO)NC(=O)[C@H](CCCNC(=N)N)NC(=O)CNC(=O)[C@H](C)NC(=O)[C@H](CCC(=O)O)NC(=O)[C@H](CCCCN)NC(=O)[C@@H](NC(=O)[C@@H](NC(=O)[C@H](C)NC(=O)[C@@H](NC(=O)[C@@H](N)CC(C)C)C(C)C)[C@@H](C)O)C(C)C)[C@@H](C)CC)C(=O)N1CCC[C@@H]1C(=O)N[C@@H](CCCNC(=N)N)C(=O)O,,,,,,,,
,CN1CCN(Cc2cn(CC(=O)N3CCN(C)CC3)c3cc(NC(=S)NCCc4c[nH]c5ccccc45)ccc23)CC1,> 1000,,,,,,,
,COC(=O)Cn1cc(CN2CCN(C)CC2)c2ccc(NC(=S)NCCc3c[nH]c4ccccc34)cc21,,100,> 500,> 500,> 500,> 500,> 500,> 500
,CN1CCN(Cc2cn(CC(=O)N3CCCCC3)c3cc(NC(=S)NCCc4c[nH]c5ccccc45)ccc23)CC1,> 1000,60,103,> 500,> 500,33,> 500,100
,CN1CCN(Cc2cn(CC(=O)NCC(=O)O)c3cc(NC(=S)NCCc4c[nH]c5ccccc45)ccc23)CC1,> 1000,> 500,> 500,> 500,> 500,> 500,> 500,> 500
,O=C(O)CNC(=O)Cn1ccc2ccc(NC(=S)NCCc3c[nH]c4ccccc34)cc21,,> 500,> 500,> 500,> 500,> 500,> 500,> 500
,CC(C)NC(=O)Cn1cc(CN2CCN(C)CC2)c2ccc(NC(=S)NCCc3c[nH]c4ccccc34)cc21,> 1000,> 500,> 500,> 500,> 500,> 500,> 500,> 500
,CCN(CC)C(=O)Cn1cc(CN2CCN(C)CC2)c2ccc(NC(=S)NCCc3c[nH]c4ccccc34)cc21,> 1000,,,,,,,
,CN1CCN(Cc2cn(CC(=O)N3CCOCC3)c3cc(NC(=S)NCCc4c[nH]c5ccccc45)ccc23)CC1,> 1000,> 500,> 500,> 500,> 500,193,> 500,> 500
,CCOC(=O)CNC(=O)Cn1cc(CN2CCN(C)CC2)c2ccc(NC(=S)NCCc3c[nH]c4ccccc34)cc21,> 1000,,,,,,,
,CC1CN(C(=O)Cn2cc(CN3CCN(C)CC3)c3ccc(NC(=S)NCCc4c[nH]c5ccccc45)cc32)CCO1 (racemic),> 1000,> 500,> 500,> 500,> 500,116,> 500,> 500
